Results reported in article PMC11273618, “Multianalytical Approach to Understand Polyphenol-Mal d 1 Interactions to Predict Their Impact on the Allergenic Potential of Apples” (Journal of Agricultural and Food Chemistry, 2024).

How the values were obtained:
[1] = molecular target: T1, r-Mal d 1.01 (recombinant Mal d 1.0108) (Malus domestica, UniProt Q9SYW3); assay: 1H-15N-HSQC NMR chemical shift perturbation; type: binding; details: 50 mM phosphate pH 7, 10% D2O, 25 °C; 100 μM 15N-protein, 0.1-2 mM ligand; no specific site, scattered over surface
T1 construct: gene MALD1; 15N-labelled in M9 medium for HSQC NMR; one cysteine (Cys107)
T1 sequence (Q9SYW3 1-159): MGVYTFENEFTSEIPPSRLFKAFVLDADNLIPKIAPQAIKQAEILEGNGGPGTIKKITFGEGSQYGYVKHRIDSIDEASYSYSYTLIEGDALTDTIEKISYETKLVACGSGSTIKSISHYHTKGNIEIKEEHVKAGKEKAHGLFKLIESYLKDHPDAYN

[2] = molecular target: T1, r-Mal d 1.01 (recombinant Mal d 1.0108); assay: isothermal titration calorimetry, independent model; details: 0.1 M sodium phosphate pH 7, 25 °C; 0.2 mM protein, 4 mM ligand injected; stoichiometry fixed at n = 1; weak nonspecific surface binding; unreliable
[3] = molecular target: T1, r-Mal d 1.01 (recombinant Mal d 1.0108); assay: untargeted bottom-up LC-MS of tryptic peptides; type: binding; details: covalent; Michael addition at Cys107 (peptide LVACGSGSTIK) via o-quinone formed by autoxidation; excess ligand in water, 20 min, room temperature

Row | Structure (SMILES) | KD [2] [µM] | 1H-15N-HSQC NMR chemical shift perturbation [1] | % modification of Cys107 peptide [3]
1 | O=C(/C=C/c1ccc(O)c(O)c1)O[C@@H]1C[C@](O)(C(=O)O)C[C@@H](O)[C@H]1O [CA, chlorogenic acid] | – | CA showed by far the strongest impact on the protein surface | –
2 | Oc1cc(O)c2c(c1)O[C@H](c1ccc(O)c(O)c1)[C@@H](O)C2 [CAT, (+)-catechin] | 500 ± 0 | – | –

The next lines start with results.

Row | KD [2] [µM] | Structure (SMILES) | 1H-15N-HSQC NMR chemical shift perturbation [1] | % modification of Cys107 peptide [3]
3 | 1400 | Oc1cc(O)c2c(c1)O[C@H](c1ccc(O)c(O)c1)[C@H](O)C2 [EC, (−)-epicatechin] | – | ~ 30%
4 | 1200 ± 200 | Oc1cc(O)c2c(c1)O[C@H](c1ccc(O)c(O)c1)[C@H](O)[C@H]2c1c(O)cc(O)c2c1O[C@H](c1ccc(O)c(O)c1)[C@@H](O)C2 [PC B1, procyanidin B1] | – | –
5 | 600 ± 0 | Oc1cc(O)c2c(c1)O[C@H](c1ccc(O)c(O)c1)[C@H](O)[C@H]2c1c(O)cc(O)c2c1O[C@H](c1ccc(O)c(O)c1)[C@H](O)C2 [PC B2, procyanidin B2] | – | –
